Columns and labels:
[1] = tested on: UCP2; assay: Treating a human subject with Tempol, serum level of UCP2 following treatment; format: in vivo; conditions: 2000 mg per day for 180 days
Experimental: (§1) A 70-kilogram human subject over the age of 65 is identified as having, or known to have, or suspected of having an increased expression level of UCP2. The human subject is administered a dose of 2000 mg of Tempol (or another nitroxide antioxidant) per day for 180 days. This may be administered in a single dose, or may be administered as a number of smaller doses over a 24-hour period: for example, four 500-mg doses at […]. Following treatment, the serum level of UCP2, is decreased.
as §1, with “subject” for “subject over the age of 65”
as §1, with “65 and having a cardiovascular disease” for “65”, “for an increased expression level of UCP2. Or a 70-kilogram human subject over the age of 65 is” for “as having, or”, “have a cardiovascular disease and/or” for “have, or suspected of having an”
as §1, with “at risk” for “over the age”, “developing colorectal cancer” for “65”, “for increased expression level of UCP2. Or a 70-kilogram human subject is” for “as having, or”, “be at risk” for “have, or suspected”, “developing colorectal cancer and/or have” for “having an”
A 70-kilogram human subject at risk of developing an autoimmune disease (e.g., rheumatoid arthritis) is identified for increased expression level of UCP2. Or a 70-kilogram human subject is known to be at risk of developing an autoimmune disease and/or have increased expression level of UCP2. The human subject is administered a dose of 2000 mg of Tempol (or another nitroxide antioxidant) per day for 180 days. This may be administered in a single dose, or may be administered as a number of smaller doses over a 24-hour period: for example, four 500-mg doses at […]. Following treatment, the serum level of UCP2, is decreased.
A 70-kilogram human subject of person at risk of developing a condition due to aging is identified. Or a 70-kilogram human subject of person is known to be at risk of developing a condition. The human subject is administered a dose of 2000 mg of Tempol (or another nitroxide antioxidant) per day for 180 days. This may be administered in a single dose, or may be administered as a number of smaller doses over a 24-hour period: for example, four 500-mg doses at […]. Following treatment, the serum level of UCP2, is decreased.
A 70-kilogram human subject at risk of developing a neurodegenerative disease (e.g., Parkinson's Disease) is identified for increased expression level of UCP2. Or a 70-kilogram human subject is known to be at risk of developing a neurodegenerative disease and/or have increased expression level of UCP2. The human subject is administered a dose of 2000 mg of Tempol (or another nitroxide antioxidant) per day for 180 days. […]

[2] = tested on: UCP2; assay: Effects of Tempol on gene expression in cardiac tissue of mice, chip-based microarray; format: in vivo; conditions: 5 mg/g of food from 14 to 31 months after birth
Experimental: To assess the effects of Tempol on gene expression, Tempol was administered to experimental mice at a dose of 5 mg/g of food from 14 months to 31 months after birth. Mice receiving the same food without the addition of Tempol were used as a negative control. At the age of 31 months, the experimental animals were sacrificed and the hearts were surgically removed. The expression of a broad spectrum of genes in the cardiac tissue was assessed using chip-based microarray technology. Such chips are well known in the art and are widely used to assess gene expression.

In the case of `CC1(C)CC(O)CC(C)(C)N1[O]` [Tempol, 4-hydroxy-2,2,6,6-tetramethylpiperidine-1-oxyl], the “serum level of UCP2 following treatment” value ([1]; Example 2: 70-kilogram human subject over the age of 65 with increased UCP2 expression) is reported as “decreased”, the “serum level of UCP2 following treatment” value ([1]; Example 3: 70-kilogram human subject with increased UCP2 expression) is reported as “decreased” and the “serum level of UCP2 following treatment” value ([1]; Example 4: human subject over the age of 65 having a cardiovascular disease) is reported as “decreased”. For the same molecule, the “serum level of UCP2 following treatment” value ([1]; Example 5: human subject at risk of developing colorectal cancer) was “decreased”, the “serum level of UCP2 following treatment” value ([1]; Example 6: human subject at risk of developing an autoimmune disease) was “decreased” and the “serum level of UCP2 following treatment” value ([1]; Example 7: human subject at risk of developing a condition due to aging) was “decreased”. The “serum level of UCP2 following treatment” value ([1]; Example 8: human subject at risk of developing a neurodegenerative disease) was “decreased”, the “serum level of UCP2 following treatment” value ([1]; Example 9: human subject having an infection) was “decreased” and the “Fold change (UCP2 expression in cardiac tissue after Tempol administration)” value ([2]; hearts at 31 months, vs. same food without Tempol, P-value 0.012) was −1.61. The “UCP2 expression in cardiac tissue (result in words)” value ([2]; microarray) was “statistically significant decrease in expression”.
